One block for each compound: values may come before it.
Test: Stability study of aqueous solutions (0.250 mg/mL) assayed by HPLC at periodic intervals for 60 days
Assay type: physicochemical
Settings: for Creatinine in solution (HPLC assay): 0.250 mg/mL; for Fraction converted to creatinine: aqueous media; for Prepared substance remaining in solution (HPLC assay): buffer, 0 days, 0.25 mg/mL
Procedure: Creatinol-O-Phospate Solution: A batch of pure water or distilled water is put in a container, adjusted to a prescribed of pH 3 or pH 7 with a normal buffer and buffer salts, and heated to a temperature of 20° to 99° C. To 100 parts by weight of the warm water is added 0.1 to 0.3 parts by weight of the Creatinol-O-Phophate (COP) which is dissolved by stirring. The pH is not particularly limited but is desirably not higher than pH 12 taking the physiological influences of the gastrointestinal tracts into consideration.
They were stored at room temperature (25 C, 77 F), at refrigerator temperature (4 C, 39 F), and at elevated temperature (40 C, 104 F) in glass scintillation vials. These samples were assayed by HPLC at periodic intervals for 60 days and evaluated relative to Standard regression curves of known concentrations of the actives and of creatinine, the primary known degradation product of creatine.

[1] = prepared at pH 3.0, 25° C., 39 Days
[2] = prepared at pH 3.0, 25° C., 60 days
[3] = prepared at pH 3.0, 25° C., INITIAL
[4] = prepared at pH 3.0, 40° C., 39 Days
[5] = prepared at pH 3.0, 40° C., 60 days
[6] = prepared at pH 3.0, 40° C., INITIAL
[7] = prepared at pH 7.0, 40° C., 39 Days
[8] = prepared at pH 7.0, 40° C., 60 days
[9] = prepared at pH 7.0, 40° C., INITIAL

SMILES: CN(CC(=O)O)C(=N)N.O [Creatine Monohydrate, reference compound]
Creatinine in solution (HPLC assay) (pH 3.0, 25° C., 39 Days): 0.154 mg/mL
Creatinine in solution (HPLC assay) (pH 3.0, 25° C., 3 day): 0.026 mg/mL
Creatinine in solution (HPLC assay) (pH 3.0, 25° C., 10 days): 0.072 mg/ml mg/mL
Creatinine in solution (HPLC assay) (pH 3.0, 25° C., 21 days): 0.111 mg/mL
Creatinine in solution (HPLC assay) (pH 3.0, 25° C., 60 days): 0.167 mg/mL
Creatinine in solution (HPLC assay) (pH 3.0, 25° C., INITIAL): 0.000 mg/mL
Creatinine in solution (HPLC assay) (pH 3.0, 40° C., 39 Days): 0.186 mg/mL
Creatinine in solution (HPLC assay) (pH 3.0, 40° C., 3 day): 0.125 mg/Ml mg/mL
Creatinine in solution (HPLC assay) (pH 3.0, 40° C., 10 days): 0.177 mg/ml mg/mL
Creatinine in solution (HPLC assay) (pH 3.0, 40° C., 21 days): 0.186 mg/mL
Creatinine in solution (HPLC assay) (pH 3.0, 40° C., 60 days): 0.187 mg/mL
Creatinine in solution (HPLC assay) (pH 3.0, 40° C., INITIAL): 0.000 mg/mL
Creatinine in solution (HPLC assay) (pH 7.0, 40° C., 39 Days): 0.068 mg/mL
Creatinine in solution (HPLC assay) (pH 7.0, 40° C., 3 day): 0.008 mg/mL
Creatinine in solution (HPLC assay) (pH 7.0, 40° C., 60 days): 0.101 mg/mL
Creatinine in solution (HPLC assay) (pH 7.0, 40° C., INITIAL): 0.000 mg/mL
Fraction converted to creatinine (39 days, pH 3.0, stored at 40° C.): 74%
Fraction converted to creatinine (39 days, pH 7.0, stored at 40° C.): 28%
Fraction converted to creatinine (pH 3.0, stored at 4° C.): 62%
pH of the solution [1]: 3.4
pH of the solution [2]: 3.4
pH of the solution [3]: 3.0
pH of the solution [4]: 3.4
pH of the solution [5]: 3.4
pH of the solution [6]: 3.0
pH of the solution [7]: 7.4
pH of the solution [8]: 7.4
pH of the solution [9]: 7.0

Stability by increase in creatinine levels over time (FIG. 1, in words): stable and resistant to decomposition
Stability in aqueous solution (in words): stable
Creatinine in solution (HPLC assay) (pH 3.0, 4° C., 39 Days): 0.00 mg/mL
Creatinine in solution (HPLC assay) (pH 3.0, 4° C., 3 day): 0.0 mg/mL
Creatinine in solution (HPLC assay) (pH 3.0, 4° C., 10 days): 0.0 mg/mL
Creatinine in solution (HPLC assay) (pH 3.0, 4° C., 21 days): 0.0 mg/mL
Creatinine in solution (HPLC assay) (pH 3.0, 4° C., 60 days): 0.00 mg/mL
Creatinine in solution (HPLC assay) (pH 3.0, 4° C., INITIAL): 0.0 mg/mL
Creatinine in solution (HPLC assay) (pH 3.0, 25° C., 39 Days): 0.00 mg/mL
Creatinine in solution (HPLC assay) (pH 3.0, 25° C., 3 day): 0.0 mg/mL
Creatinine in solution (HPLC assay) (pH 3.0, 25° C., 10 days): 0.0 mg/mL
Creatinine in solution (HPLC assay) (pH 3.0, 25° C., 21 days): 0.0 mg/mL
Creatinine in solution (HPLC assay) (pH 3.0, 25° C., 60 days): 0.00 mg/mL
Creatinine in solution (HPLC assay) (pH 3.0, 25° C., INITIAL): 0.0 mg/mL
Creatinine in solution (HPLC assay) (pH 3.0, 40° C., 39 Days): 0.00 mg/mL
Creatinine in solution (HPLC assay) (pH 3.0, 40° C., 3 day): 0.0 mg/mL
Creatinine in solution (HPLC assay) (pH 3.0, 40° C., 10 days): 0.0 mg/mL
Creatinine in solution (HPLC assay) (pH 3.0, 40° C., 21 days): 0.0 mg/mL
Creatinine in solution (HPLC assay) (pH 3.0, 40° C., 60 days): 0.00 mg/mL
Creatinine in solution (HPLC assay) (pH 3.0, 40° C., INITIAL): 0.0 mg/mL
Creatinine in solution (HPLC assay) (pH 7.0, 4° C., 39 Days): 0.00 mg/mL
Creatinine in solution (HPLC assay) (pH 7.0, 4° C., 3 day): 0.0 mg/mL
Creatinine in solution (HPLC assay) (pH 7.0, 4° C., 10 days): 0.0 mg/mL
Creatinine in solution (HPLC assay) (pH 7.0, 4° C., 21 days): 0.0 mg/mL
Creatinine in solution (HPLC assay) (pH 7.0, 4° C., 60 days): 0.00 mg/mL
Creatinine in solution (HPLC assay) (pH 7.0, 4° C., INITIAL): 0.0 mg/mL
Creatinine in solution (HPLC assay) (pH 7.0, 25° C., 39 Days): 0.00 mg/mL
Creatinine in solution (HPLC assay) (pH 7.0, 25° C., 3 day): 0.0 mg/mL
Creatinine in solution (HPLC assay) (pH 7.0, 25° C., 10 days): 0.0 mg/mL
Creatinine in solution (HPLC assay) (pH 7.0, 25° C., 21 days): 0.0 mg/mL
Creatinine in solution (HPLC assay) (pH 7.0, 25° C., 60 days): 0.00 mg/mL
Creatinine in solution (HPLC assay) (pH 7.0, 25° C., INITIAL): 0.0 mg/mL
Creatinine in solution (HPLC assay) (pH 7.0, 40° C., 39 Days): 0.00 mg/mL
Creatinine in solution (HPLC assay) (pH 7.0, 40° C., 3 day): 0.0 mg/mL
Creatinine in solution (HPLC assay) (pH 7.0, 40° C., 10 days): 0.0 mg/mL
Creatinine in solution (HPLC assay) (pH 7.0, 40° C., 21 days): 0.0 mg/mL
Creatinine in solution (HPLC assay) (pH 7.0, 40° C., 60 days): 0.00 mg/mL
Creatinine in solution (HPLC assay) (pH 7.0, 40° C., INITIAL): 0.0 mg/mL
Prepared substance remaining in solution (HPLC assay) (pH 3): 0.247 mg/ml mg/mL
Prepared substance remaining in solution (HPLC assay) (pH 7): 0.226 mg/ml mg/mL
pH of the solution (prepared at pH 3.0, 4° C., 39 Days): 3.1
pH of the solution (prepared at pH 3.0, 4° C., 60 days): 3.1
pH of the solution (prepared at pH 3.0, 4° C., INITIAL): 3.0
pH of the solution [1]: 3.1
pH of the solution [2]: 3.1
pH of the solution [3]: 3.0
pH of the solution [4]: 3.0
pH of the solution [5]: 3.0
pH of the solution [6]: 3.0
pH of the solution (prepared at pH 7.0, 4° C., 39 Days): 5.2
pH of the solution (prepared at pH 7.0, 4° C., 60 days): 5.2
pH of the solution (prepared at pH 7.0, 4° C., INITIAL): 7.0
pH of the solution (prepared at pH 7.0, 25° C., 39 Days): 5.3
pH of the solution (prepared at pH 7.0, 25° C., 60 days): 5.3
pH of the solution (prepared at pH 7.0, 25° C., INITIAL): 7.0
pH of the solution [7]: 5.5
pH of the solution [8]: 5.5
pH of the solution [9]: 7.0
SMILES: CN(CCOP(=O)(O)O)C(=N)N [Creatinol-O-Phosphate, Creatinol-O-phosphate]
